Results published in the supplement of paper PMC10307832.

What was measured:
Test in all cases: relative viability (nuclei count vs DMSO), 5 days (fraction); higher = more cells survive
Kobe2602 = compound: C1=CC(=CC=C1NC(=S)NNC2=C(C=C(C=C2[N+](=O)[O-])C(F)(F)F)[N+](=O)[O-])F [Kobe2602]
Outline: (§1)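 Five library-drug doses spaced by √10 were pinned onto vehicle-anchored 1536-well plates of lung cancer cell lines that had been kept overnight at 37 °C. Cells went 5 days without medium change, then were fixed, permeabilised and Hoechst-stained together, imaged at 4× and counted by MetaXpress. Viability is the ratio of treated-well to vehicle-well nuclei, taken as a median over plates. Plates required control CV below 25% and at least one doubling.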

Cabozantinib = compound: COc1cc2nccc(Oc3ccc(NC(=O)C4(C(=O)Nc5ccc(F)cc5)CC4)cc3)c2cc1OC [Cabozantinib]
Outline: as §1

Zosuquidar = compound: O[C@@H](COc1cccc2ncccc12)CN1CCN([C@@H]2c3ccccc3[C@@H]3[C@H](c4ccccc42)C3(F)F)CC1 [Zosuquidar]
Outline: as §1

Cabozantinib + Dasatinib = compound: COc1cc2nccc(Oc3ccc(NC(=O)C4(C(=O)Nc5ccc(F)cc5)CC4)cc3)c2cc1OC [Cabozantinib] + Cc1nc(Nc2ncc(C(=O)Nc3c(C)cccc3Cl)s2)cc(N2CCN(CCO)CC2)n1 [Dasatinib] (partner 0.075 µM)
Outline: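 Lung cancer cell lines were pin-tool dosed in 1536-well plates on the day after seeding, with either a lone drug or a fixed anchor-drug dose plus five library-drug doses (not always all listed) in √10 steps. Nuclei were counted on 4× images after 5 days. Relative viability is the ratio of treated-well to vehicle-well nuclei counts, with each value a median of duplicate plates.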

Cell Line	relative viability (Kobe2602; 0.2 µM)	relative viability (Kobe2602; 0.6325 µM)	relative viability (Kobe2602; 2 µM)	relative viability (Kobe2602; 6.325 µM)	relative viability (Kobe2602; 20 µM)	relative viability (Cabozantinib; 0.02 µM)	relative viability (Cabozantinib; 0.06325 µM)	relative viability (Cabozantinib; 0.2 µM)	relative viability (Cabozantinib; 0.6325 µM)	relative viability (Cabozantinib; 2 µM)	relative viability (Zosuquidar; 0.01 µM)	relative viability (Zosuquidar; 0.03162 µM)	relative viability (Zosuquidar; 0.1 µM)	relative viability (Zosuquidar; 0.3162 µM)	relative viability (Zosuquidar; 1 µM)	relative viability (Cabozantinib + Dasatinib; first compound 0.02 µM)	relative viability (Cabozantinib + Dasatinib; first compound 0.06325 µM)	relative viability (Cabozantinib + Dasatinib; first compound 0.2 µM)	relative viability (Cabozantinib + Dasatinib; first compound 0.6325 µM)	relative viability (Cabozantinib + Dasatinib; first compound 2 µM)
Calu-6	0.992	1.05	1.01	1.01	0.929	1.14	1.08	0.977	0.987	0.954	0.993	0.989	1.11	1.04	1.06	–	–	–	–	–
ChaGo-K-1	1.09	1.04	0.946	0.979	0.972	1.06	1.05	1	0.909	1.01	1.02	0.998	0.978	1.02	0.999	0.552	0.652	0.519	0.634	0.542
EBC-1	0.956	1.05	0.957	0.93	0.984	1.04	0.901	0.227	0.174	0.165	1.05	1.01	0.956	1.11	0.929	–	–	–	–	–
EKVX	0.968	1.02	0.922	0.976	1.09	0.919	1.12	0.915	1.01	1.1	0.952	0.961	0.737	1.02	0.97	0.53	0.592	–	0.488	0.461
EMC-BAC-2	1.02	1.26	0.947	1.12	0.999	0.776	1.1	1.15	1.04	1.01	1.01	0.955	0.89	1.12	0.73	0.244	0.334	0.286	0.292	0.262
EPLC-272H	0.98	1.16	0.952	1.02	1.04	0.921	1.17	0.821	0.872	0.856	0.963	0.995	0.781	1.06	0.892	0.245	0.403	0.26	0.26	0.285
H3255	0.959	1.03	0.909	0.91	0.915	0.948	1.04	–	0.994	1.07	0.959	0.952	0.8	1.07	0.931	0.382	0.513	–	0.459	0.309
HARA	0.978	1.13	0.944	1.01	1.03	0.916	1.16	0.714	1.04	1.05	0.98	0.852	0.944	1.01	0.941	0.251	0.312	0.221	0.296	0.233
HCC-15	1	1.03	0.976	0.998	0.991	0.972	1.11	1.01	0.994	1.02	0.959	0.937	0.956	1.04	0.972	0.548	0.717	0.651	0.568	0.598
